From patent US10947216B2, “Amide compounds and method for making and using” (Rigel Pharmaceuticals, Inc., priority 2016, dated 2021)
Structures can show the parent of a compound that is named as a salt.

Assays:
[1] = test system: IL-23p19; test: LPS Induced IL23p19 in THP-1 Cells (with IFNγ Primed) Assay; type: cell-based, human; conditions: Homo sapiens, THP-1, THP-1 cells, IFNγ (50 ng/mL) primed, 1 hour compound pre-incubation, LPS 1 ug/mL 18 hours, 10 pt; read-out: IL23-p19 ELISA, THP1-IFNy, LPS, 10 pt EC50
How it was run: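 THP-1 cells (50K/well) primed ~18 h with IFNγ (50 ng/mL) in RPMI/10% FBS, then incubated with compound in duplicate for 18 h at 37° C. Supernatant IL-23p19 measured by chemiluminescent sandwich ELISA, giving EC50 by curve fitting. Toxicity assessed in parallel on the remaining cells by Cell Titer Glo.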

[2] = test system: IL-23 (p19/p40); test: IL23-p19 ELISA, dendritic cells (DC differentiated from human PBMC, IFNγ primed), LPS stimulated; type: cell-based; conditions: Dendritic cell, human PBMC-derived dendritic cells, 1 h compound pre-incubation, LPS 1 μg/ml 18 hours, 10 pt
How it was run: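 PBMC-derived DCs (GM-CSF 100 ng/ml + IL-4 20 ng/ml, 7 days) primed 24 h with IFNγ 50 ng/ml, 50K cells/well; compound pre-incubated 1 h at 37° C, then LPS, 18 h. Supernatant IL-23 by p19-capture/p40-detection chemiluminescent ELISA; cytotoxicity by Cell Titer Glo.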

Compound COCCOCCn1cc(NC(=O)c2cccc(-c3cn[nH]c3)n2)c(-c2ccccn2)n1 [Compound I-153, N-(1-(2-(2-methoxyethoxy)ethyl)-3-(pyridin-2-yl)-1H-pyrazol-4-yl)-6-(1H-pyrazol-4-yl)picolinamide formate] has an EC50 [1] of 463 nM and an EC50 [2] of 628 nM.

Compound COCCOCCn1cc(NC(=O)c2cccc(Nc3ccc4[nH]ncc4c3)n2)c(-c2ccccn2)n1 [Compound I-154, 6-((1H-indazol-5-yl)amino)-N-(1-(2-(2-methoxyethoxy)ethyl)-3-(pyridin-2-yl)-1H-pyrazol-4-yl)picolinamide formate] has an EC50 [1] of 4920 nM and an EC50 [2] of 6510 nM.

For COCCOCCn1cc(NC(=O)c2cccc(Nc3ccc4n[nH]cc4c3)n2)c(-c2ccccn2)n1 [Compound I-155, 6-((2H-indazol-5-yl)amino)-N-(1-(2-(2-methoxyethoxy)ethyl)-3-(pyridin-2-yl)-1H-pyrazol-4-yl)picolinamide formate], the EC50 [1] was 6160 nM and the EC50 [2] was 2410 nM.

COCCOCCn1cc(NC(=O)c2cccc(Oc3ccnc(N)c3)n2)c(-c2ccccn2)n1 [Compound I-156, 6-((2-aminopyridin-4-yl)oxy)-N-(1-(2-(2-methoxyethoxy)ethyl)-3-(pyridin-2-yl)-1H-pyrazol-4-yl)picolinamide formate] was tested, and the EC50 [1] was 21400 nM and the EC50 [2] was 2730 nM.

Cn1cc(NC(=O)c2cccc(-c3ccnc(NCC(F)(F)F)c3)n2)c(-c2ccccn2)n1 [Compound I-161, N-(1-methyl-3-(pyridin-2-yl)-1H-pyrazol-4-yl)-2′-((2,2,2-trifluoroethyl)amino)-[2,4′-bipyridine]-6-carboxamide formate] was tested, and the EC50 [1] was 7520 nM and the EC50 [2] was 4200 nM.

Work on COC1CC(n2cc(NC(=O)c3cccc(-c4cncc(C)c4)n3)c(-c3ccccn3)n2)C1 (stereo not drawn) [Compound I-162, N-(1-(3-methoxycyclobutyl)-3-(pyridin-2-yl)-1H-pyrazol-4-yl)-5′-methyl-[2,3′-bipyridine]-6-carboxamide formate] yielded an EC50 [1] of 499 nM and an EC50 [2] of 167 nM.

COC1CC(n2cc(NC(=O)c3cccc(-c4cn[nH]c4)n3)c(-c3ccccn3)n2)C1 (stereo not drawn) [Compound I-163, N-(1-(3-methoxycyclobutyl)-3-(pyridin-2-yl)-1H-pyrazol-4-yl)-6-(1H-pyrazol-4-yl)picolinamide formate] gave an EC50 [1] of 371 nM and an EC50 [2] of 1060 nM.

Compound Cc1cncc(-c2cccc(C(=O)Nc3cn(C4CCOCC4)nc3-c3ccccn3)n2)c1 [Compound I-164, 5′-methyl-N-(3-(pyridin-2-yl)-1-(tetrahydro-2H-pyran-4-yl)-1H-pyrazol-4-yl)-[2,3′-bipyridine]-6-carboxamide] has an EC50 [1] of 1370 nM and an EC50 [2] of 2890 nM.

O=C(Nc1cn(C2CCOCC2)nc1-c1ccccn1)c1cccc(-c2cc[nH]n2)n1 [Compound I-166, 6-(1H-pyrazol-3-yl)-N-(3-(pyridin-2-yl)-1-(tetrahydro-2H-pyran-4-yl)-1H-pyrazol-4-yl)picolinamide] showed an EC50 [1] of 1090 nM and an EC50 [2] of 71 nM.

COCCCn1cc(NC(=O)c2cccc(-c3cncc(C)c3)n2)c(-c2ccccn2)n1 [Compound I-169, N-(1-(3-methoxypropyl)-3-(pyridin-2-yl)-1H-pyrazol-4-yl)-5′-methyl-[2,3′-bipyridine]-6-carboxamide] was tested, and the EC50 [1] was 557 nM and the EC50 [2] was 2420 nM.

CN1CCN(c2ccc(-c3nn(C)cc3NC(=O)c3cccc(-c4cn[nH]c4)n3)nc2)CC1 [Compound I-174, N-(1-methyl-3-(5-(4-methylpiperazin-1-yl)pyridin-2-yl)-1H-pyrazol-4-yl)-6-(1H-pyrazol-4-yl)picolinamide] showed an EC50 [1] of 19500 nM and an EC50 [2] of 7070 nM.

With CN1CCN(c2ccc(-c3nn(C)cc3NC(=O)c3cccc(-c4cc[nH]n4)n3)nc2)CC1 [Compound I-175, N-(1-methyl-3-(5-(4-methylpiperazin-1-yl)pyridin-2-yl)-1H-pyrazol-4-yl)-6-(1H-pyrazol-3-yl)picolinamide] the EC50 [1] was 9010 nM and the EC50 [2] was 6840 nM.

In the case of Cc1cncc(-c2cccc(C(=O)Nc3cn(C)nc3-c3ccc(N4CCN(C)CC4)cn3)n2)c1 [Compound I-177, 5′-methyl-N-(1-methyl-3-(5-(4-methylpiperazin-1-yl)pyridin-2-yl)-1H-pyrazol-4-yl)-[2,3′-bipyridine]-6-carboxamide dihydrochloride], the EC50 [1] is reported as 21700 nM and the EC50 [2] is reported as 12200 nM.

Cc1cncc(-c2cccc(C(=O)Nc3cn(C)nc3-c3ccc(OCC(C)(C)O)cn3)n2)c1 [Compound I-178, N-(3-(5-(2-hydroxy-2-methylpropoxy)pyridin-2-yl)-1-methyl-1H-pyrazol-4-yl)-5′-methyl-[2,3′-bipyridine]-6-carboxamide] was tested, and the EC50 [1] was 2070 nM and the EC50 [2] was 19300 nM.

In the case of Cn1cc(NC(=O)c2cccc(-c3cc[nH]n3)n2)c(-c2ccc(OCC(C)(C)O)cn2)n1 [Compound I-180, N-(3-(5-(2-hydroxy-2-methylpropoxy)pyridin-2-yl)-1-methyl-1H-pyrazol-4-yl)-6-(1H-pyrazol-3-yl)picolinamide], the EC50 [1] is reported as 340 nM and the EC50 [2] is reported as 1190 nM.

Work on Cc1cncc(-c2cccc(C(=O)Nc3cn(C)nc3-c3ccc(OC4COC4)cn3)n2)c1 [Compound I-181, 5′-methyl-N-(1-methyl-3-(5-(oxetan-3-yloxy)pyridin-2-yl)-1H-pyrazol-4-yl)-[2,3′-bipyridine]-6-carboxamide] yielded an EC50 [1] of 1490 nM and an EC50 [2] of 4180 nM.

Cn1cc(NC(=O)c2cccc(-c3cc[nH]n3)n2)c(-c2ccc(OC3COC3)cn2)n1 [Compound I-183, N-(1-methyl-3-(5-(oxetan-3-yloxy)pyridin-2-yl)-1H-pyrazol-4-yl)-6-(1H-pyrazol-3-yl)picolinamide] showed an EC50 [1] of 96.1 nM and an EC50 [2] of 216 nM.

For CCO[C@H]1CC[C@H](n2cc(NC(=O)c3cccc(-c4cn[nH]c4)n3)c(-c3ncc(F)cc3F)n2)CC1 [Compound I-184, N-(3-(3,5-difluoropyridin-2-yl)-1-(trans-4-ethoxycyclohexyl)-1H-pyrazol-4-yl)-6-(1H-pyrazol-4-yl)picolinamide], the EC50 [1] was 328 nM and the EC50 [2] was 8250 nM.
